Test results taken from US20110015119A1, “NOVEL SEMI-SYNTHETIC GLYCOPEPTIDES AS ANTIBACTERIAL AGENTS” (LEAD THERAPEUTICS, INC., priority 2009, published 2011).
In brackets after ≈: the same amount, converted by molar mass. Like-named read-outs stand apart in the source and are kept apart here.

Legend:
Format in all cases: cell-based
[1] = tested on: Staphylococcus aureus 100 (ATCC 29213); test: MIC by broth microdilution, SA 100
Protocol: (§1) Antibacterial activity in vitro is investigated by broth microdilution method in Meuller-Hinton broth as recommended by NCCLS. All strains tested are clinical isolates either sensitive or resistant to natural glycopeptides. MIC values were determined using the CLSI-recommended broth microdilution procedure (Clinical and Laboratory Standards Institute, Methods for Dilution Antimicrobial Susceptibility Tests for Bacteria That Grow Aerobically; Approved Standard-Seventh Edition.). Automated liquid handlers (Multidrop 384, Labsystems, Helsinki, Finland; Biomek 2000 and Multimek 96, Beckman Coulter, Fullerton Calif.) were used to conduct serial dilutions and liquid transfers. The MIC value for vancomycin is given for comparison. The abbreviations for organisms tested are as follow: SA 100—Staphylococcus aureus 100 (ATCC 29213); SA 757—Staphylococcus aureus 757 (MRSA); SA 2012—Staphylococcus aureus 2012 (VISA); SE 835—Staphylococcus epidermidis 835; SE 831—Staphylococcus epidermidis 831 (MRSE); EFc 101—Enterococcus faecalis 101 (ATCC 29212); EFc 848—Enterococcus faecalis 848 (VRE, Van A); EFcm 800—Enterococcus faecium 800; EFcm 752—Enterococcus faecium 752 (VRE, Van A); SPNE 1195—Streptococcus pneumoniae 1195 (ATCC 49619); SPY 712—Streptococcus pyogenes 712.

[2] = tested on: Staphylococcus aureus 757 (MRSA); test: MIC by broth microdilution, SA 757; details: read-out: MIC SA 757
Protocol: as §1

[3] = tested on: Staphylococcus aureus 2012 (VISA); test: MIC by broth microdilution, SA 2012; details: class symbols
Protocol: as §1

[4] = tested on: Staphylococcus epidermidis 835; test: MIC by broth microdilution, SE 835
Protocol: as §1

[5] = tested on: Staphylococcus epidermidis 831 (MRSE); test: MIC by broth microdilution, SE 831; details: read-out: MIC SE 831
Protocol: as §1

[6] = tested on: Enterococcus faecalis 101 (ATCC 29212); test: MIC by broth microdilution, EFc 101; details: class symbols
Protocol: as §1

[7] = tested on: Enterococcus faecalis 848 (VRE, Van A); test: MIC by broth microdilution, EFc 848; details: class symbols
Protocol: as §1

Enterococcus faecium 800 = test: MIC by broth microdilution, EFcm 800
Protocol: as §1

[8] = tested on: Enterococcus faecium 752 (VRE, Van A); test: MIC by broth microdilution, EFcm 752; details: class symbols
Protocol: as §1

[9] = tested on: Streptococcus pneumoniae 1195 (ATCC 49619); test: MIC by broth microdilution, SPNE 1195
Protocol: as §1

[10] = tested on: Streptococcus pyogenes 712; test: MIC by broth microdilution, SPY 712
Protocol: as §1

[11] = Staphylococcus aureus, ATCC29213, read-out: MIC SA 100
[12] = Staphylococcus aureus, VISA, read-out: MIC SA 2012, Staphylococcus aureus 2012 (VISA)
[13] = Staphylococcus epidermidis, 835, read-out: MIC SE 835
[14] = Staphylococcus epidermidis, MRSE
[15] = Enterococcus faecalis, ATCC29212, read-out: MIC E FC 101, Enterococcus faecalis 101 (ATCC 29212)
[16] = Enterococcus faecalis, VRE, read-out: MIC E FC 848, Enterococcus faecalis 848 (VRE, Van A)
[17] = Enterococcus faecium, 800, read-out: MIC E FCM 800
[18] = Enterococcus faecium, VRE, read-out: MIC E FCM 752, Enterococcus faecium 752 (VRE, Van A)
[19] = Streptococcus pneumoniae, ATCC49619, read-out: MIC S PNE 1195
[20] = Streptococcus pyogenes, 712, read-out: MIC S PYO 712

| Structure (SMILES) | MIC [1, 11] [mg/L] | MIC ([2]; Staphylococcus aureus, MRSA) [mg/L] | MIC [3, 12] [mg/L] | MIC [4, 13] [mg/L] | MIC [5, 14] [mg/L] | MIC [6, 15] [mg/L] | MIC [7, 16] [mg/L] | MIC (Enterococcus faecium 800; [17]) [mg/L] | MIC [8, 18] [mg/L] | MIC [9, 19] [mg/L] | MIC [10, 20] [mg/L] | other results |
| --- | --- | --- | --- | --- | --- | --- | --- | --- | --- | --- | --- | --- |
| CCCCCCc1ccc(NC(=O)Oc2cc(O)c3c(c2)[C@@H](C(=O)NC2C4CC5CC(C4)CC2C5)NC(=O)[C@H]2NC(=O)[C@H](NC(=O)[C@@H]4NC(=O)[C@H](CC(N)=O)NC(=O)[C@H](NC(=O)[C@@H](CC(C)C)NC)[C@H](O)c5ccc(c(Cl)c5)Oc5cc4cc(c5O[C@@H]4O[C@H](CO)[C@@H](O)[C@H](O)[C@H]4O[C@H]4C[C@](C)(N)[C@H](O)[C@H](C)O4)Oc4ccc(cc4Cl)[C@H]2O)c2ccc(O)c-3c2)cc1 (stereo partly shown) [Compound 332] | 1 to 2 (≈ 0.56 to 1.12 µM) | 1 to 2 (≈ 0.56 to 1.12 µM) | 4 to 8 (≈ 2.24 to 4.48 µM) | 1 to 2 (≈ 0.56 to 1.12 µM) | 0.5 to 1 (≈ 0.28 to 0.56 µM) | 1 to 2 (≈ 0.56 to 1.12 µM) | > 16 | 0.5 to 1 (≈ 0.28 to 0.56 µM) | 8 to 16 (≈ 4.48 to 8.96 µM) | 0.01 to 0.5 (≈ 0.0056 to 0.28 µM) | 0.01 to 0.5 (≈ 0.0056 to 0.28 µM) |  |
| CCCCCOc1ccc(S(=O)(=O)NCCCCCCNC(=O)Oc2cc(O)c3c(c2)[C@@H](C(=O)O)NC(=O)[C@H]2NC(=O)[C@H](NC(=O)[C@@H]4NC(=O)[C@H](CC(N)=O)NC(=O)[C@H](NC(=O)[C@@H](CC(C)C)NC)[C@H](O)c5ccc(c(Cl)c5)Oc5cc4cc(c5O[C@@H]4O[C@H](CO)[C@@H](O)[C@H](O)[C@H]4O[C@H]4C[C@](C)(N)[C@H](O)[C@H](C)O4)Oc4ccc(cc4Cl)[C@H]2O)c2ccc(O)c-3c2)cc1 (atropisomer, axis not shown) [Compound 322] | 0.01 to 0.5 (≈ 0.0055 to 0.275 µM) | 0.01 to 0.5 (≈ 0.0055 to 0.275 µM) | 1 to 2 (≈ 0.55 to 1.1 µM) | 0.01 to 0.5 (≈ 0.0055 to 0.275 µM) | 0.01 to 0.5 (≈ 0.0055 to 0.275 µM) | 0.01 to 0.5 (≈ 0.0055 to 0.275 µM) | 8 to 16 (≈ 4.4 to 8.8 µM) | 0.01 to 0.5 (≈ 0.0055 to 0.275 µM) | 2 to 4 (≈ 1.1 to 2.2 µM) | 0.01 to 0.5 (≈ 0.0055 to 0.275 µM) | 0.01 to 0.5 (≈ 0.0055 to 0.275 µM) |  |
| CCCCCOCCNC(=O)Oc1cc(O)c2c(c1)[C@@H](C(=O)NC1C3CC4CC(C3)CC1C4)NC(=O)[C@H]1NC(=O)[C@H](NC(=O)[C@@H]3NC(=O)[C@H](CC(N)=O)NC(=O)[C@H](NC(=O)[C@@H](CC(C)C)NC)[C@H](O)c4ccc(c(Cl)c4)Oc4cc3cc(c4O[C@@H]3O[C@H](CO)[C@@H](O)[C@H](O)[C@H]3O[C@H]3C[C@](C)(N)[C@H](O)[C@H](C)O3)Oc3ccc(cc3Cl)[C@H]1O)c1ccc(O)c-2c1 (stereo partly shown) [Compound 340] | 0.01 to 0.5 (≈ 0.00575 to 0.287 µM) | 0.01 to 0.5 (≈ 0.00575 to 0.287 µM) | 0.5 to 1 (≈ 0.287 to 0.575 µM) | 0.01 to 0.5 (≈ 0.00575 to 0.287 µM) | 0.01 to 0.5 (≈ 0.00575 to 0.287 µM) | 0.01 to 0.5 (≈ 0.00575 to 0.287 µM) | 8 to 16 (≈ 4.6 to 9.2 µM) | 0.01 to 0.5 (≈ 0.00575 to 0.287 µM) | 2 to 4 (≈ 1.15 to 2.3 µM) | 0.01 to 0.5 (≈ 0.00575 to 0.287 µM) | 0.01 to 0.5 (≈ 0.00575 to 0.287 µM) |  |
| CCCCCCc1ccc(S(=O)(=O)NCCCCCCNCc2c(O)cc3c(c2O)-c2cc(ccc2O)[C@H]2NC(=O)[C@@H]4NC(=O)[C@H](CC(N)=O)NC(=O)[C@H](NC(=O)[C@@H](CC(C)C)NC)[C@H](O)c5ccc(c(Cl)c5)Oc5cc4cc(c5O[C@@H]4O[C@H](CO)[C@@H](O)[C@H](O)[C@H]4O[C@H]4C[C@](C)(NC(=O)CN)[C@H](O)[C@H](C)O4)Oc4ccc(cc4Cl)[C@@H](O)[C@H](NC2=O)C(=O)N[C@@H]3C(=O)O)cc1 (atropisomer, axis not shown) [Compound 362] |  |  |  |  |  |  |  |  |  |  |  | MIC ([1]; ATCC29213, Staphylococcus aureus 100 (ATCC 29213), class symbols, read-out: MIC SA 100): 0.01 to 0.5 mg/L (≈ 0.00538 to 0.269 µM); MIC ([2]; Staphylococcus aureus 757 (MRSA), class symbols): 0.01 to 0.5 mg/L (≈ 0.00538 to 0.269 µM); MIC ([3]; Staphylococcus aureus 2012 (VISA), read-out: MIC SA 2012): 0.01 to 0.5 mg/L (≈ 0.00538 to 0.269 µM); MIC ([4]; Staphylococcus epidermidis 835, class symbols, read-out: MIC SE 835): 0.01 to 0.5 mg/L (≈ 0.00538 to 0.269 µM); MIC ([5]; Staphylococcus epidermidis 831 (MRSE), class symbols): 0.01 to 0.5 mg/L (≈ 0.00538 to 0.269 µM); MIC ([6]; ATCC29212, Enterococcus faecalis 101 (ATCC 29212), read-out: MIC E FC 101): 0.01 to 0.5 mg/L (≈ 0.00538 to 0.269 µM); MIC ([7]; Enterococcus faecalis 848 (VRE, Van A), read-out: MIC E FC 848): 8 to 16 mg/L (≈ 4.3 to 8.61 µM); MIC (Enterococcus faecium 800; Enterococcus faecium 800, class symbols, read-out: MIC E FCM 800): 0.01 to 0.5 mg/L (≈ 0.00538 to 0.269 µM); MIC ([8]; Enterococcus faecium 752 (VRE, Van A), read-out: MIC E FCM 752): 2 to 4 mg/L (≈ 1.08 to 2.15 µM); MIC ([9]; ATCC49619, Streptococcus pneumoniae 1195 (ATCC 49619), class symbols, read-out: MIC S PNE 1195): 0.01 to 0.5 mg/L (≈ 0.00538 to 0.269 µM); MIC ([10]; Streptococcus pyogenes 712, class symbols, read-out: MIC S PYO 712): 0.01 to 0.5 mg/L (≈ 0.00538 to 0.269 µM) |
| CCCCc1ccc(NC(=O)Oc2cc(O)c3c(c2)[C@@H](C(=O)NC2C4CC5CC(C4)CC2C5)NC(=O)[C@H]2NC(=O)[C@H](NC(=O)[C@@H]4NC(=O)[C@H](CC(N)=O)NC(=O)[C@H](NC(=O)[C@@H](CC(C)C)NC)[C@H](O)c5ccc(c(Cl)c5)Oc5cc4cc(c5O[C@@H]4O[C@H](CO)[C@@H](O)[C@H](O)[C@H]4O[C@H]4C[C@](C)(N)[C@H](O)[C@H](C)O4)Oc4ccc(cc4Cl)[C@H]2O)c2ccc(O)c-3c2)cc1 (stereo partly shown) [Compound 331] | 0.01 to 0.5 (≈ 0.00569 to 0.284 µM) | 0.01 to 0.5 (≈ 0.00569 to 0.284 µM) | 1 to 2 (≈ 0.569 to 1.14 µM) | 0.5 to 1 (≈ 0.284 to 0.569 µM) | 0.01 to 0.5 (≈ 0.00569 to 0.284 µM) | 0.5 to 1 (≈ 0.284 to 0.569 µM) | > 16 | 0.01 to 0.5 (≈ 0.00569 to 0.284 µM) | 2 to 4 (≈ 1.14 to 2.28 µM) | 0.01 to 0.5 (≈ 0.00569 to 0.284 µM) | 0.01 to 0.5 (≈ 0.00569 to 0.284 µM) |  |
